Columns and labels:
Rattus norvegicus = experiment: Antinociceptive activity in po dosed Sprague-Dawley rat by low intensity tail flick test; format: functional
[1] = target: T1, Voltage-gated potassium channel, KQT; KCNQ2(Kv7.2)/KCNQ3(Kv7.3) (Homo sapiens) (UniProt O43526+O43525); experiment: Modulation of human KCNQ2/3 channel expressed in CHO-K1 cells by fluorescence assay; format: cell-based
[2] = target: T1, Voltage-gated potassium channel, KQT; KCNQ2(Kv7.2)/KCNQ3(Kv7.3) (Homo sapiens); experiment: Modulation of human KCNQ2/3 channel expressed in CHO-K1 cells by fluorescence assay relative to retigabine; format: cell-based; parameters: concentration or dose not given beside the values

Activity [1]	Activity [2]	Compound	ED50 (Rattus norvegicus)
42 nM	244%	CCSc1nc(N2CCOCC2)cc(C)c1C(=O)NCCCC(C)(C)C	100 mg/kg
134 nM	171%	CCSc1nc(N2CCOCC2)cc(C)c1C(=O)NCc1cccc(F)c1	4.3 mg/kg
206 nM	215%	CCSc1nc(N2CCOCC2)cc(C)c1C(=O)NCCCC(C)C	46 mg/kg
483 nM	245%	Cc1cc(N2CCOCC2)nc(C2CC2)c1C(=O)NC[C@@H]1CCCC[C@H]1O	67 mg/kg
56 nM	160%	CCSc1nc(N2CCOCC2)cc(C)c1C(=O)NCc1cc(C)cc(F)c1	78 mg/kg
181 nM	176%	CCCc1nc(N2CCOCC2)cc(C)c1C(=O)NCc1cccc(F)c1	81 mg/kg
124 nM	158%	CCSc1nc(N2CCOCC2)cc(C)c1C(=O)NCc1ccc(F)cc1	94 mg/kg
736 nM	155%	COc1nc(N2CCOCC2)cc(C)c1C(=O)NCc1cccc(F)c1	79 mg/kg
